This is an account of results in patent US20200030214A1, “USE OF COMPATIBLE SOLUTES” (MERCK PATENT GMBH, priority 2017, published 2020).

What all share (assay type): cell-based
Test [1] relates to HaCaT keratinocytes. The test can be described thus: Protective effect against UVA induced carbonylated protein formation (SDS-PAGE, fluorescent labelling). The following applies: 24 h, UVA 365 nm 33 J/cm^2, in comparison to the control, FIGS. 3 and 4. The protocol: (§1) HaCaT keratinocytes are cultured in calcium-free DMEM (Dulbecco's Modified Eagle Medium), with 10% SVF, at 37° C. and humid atmosphere, supplemented with 5% CO2 for 24 h.
(§2) After this initial time period the cell cultures are treated with the respective active compound. A non treated sample is used as reference.
(§3) The following active compounds are used in the above method: • Ectoin (Merck KGaA, Germany) 0.5% w/v dissolved in culture medium. • Ectoin (Merck KGaA, Germany) 0.3% w/v dissolved in culture medium • N-acetyl-cysteine (NAC) (Sigma-Aldrich) 2.5 mM, as internal reference
(§4) After a time period of 24 h, stress is induced in the samples by treatment with blue light irradiation (460 nm) or UVA irradiation (365 nm). In addition, samples not treated with an active compound are left non-irradiated for comparison.
UVA irradiation (365 nm): • Source: LED • Irradiance: 50 mW/cm^2 • Dose: 33 J/cm^2 (i.e. less intense than 15 minutes at noon in the middle European sunlight) • Irradiation time: 11 min […]
(§5) In situ detection of carbonylated proteins: After thawing of the samples, protein extraction from cells is performed using OxiProteomics' validated protocols. Extracted proteins are solubilized and quantified by the Bradford method (Bradford, 1976, Anal. Biochem., 72, 248) using calibrated BSA as standard. […] Quantification is obtained from each sample, both for carbonylated and total proteins.

The test system of test [2] is HaCaT keratinocytes. The test can be described thus: Protective effect against blue light induced carbonylated protein formation (SDS-PAGE, fluorescent labelling). Conditions: 24 h, blue light 460 nm 35 J/cm^2, FIGS. 5 and 6. On the procedure: as §1, §2, §3, §4
Blue light irradiation (460 nm): • Source: LED • Irradiance: 53 mW/cm^2 • Dose: 35 J/cm^2 (corresponding to the emission of a computer screen during 8 h/d for 3 days) • Irradiation time: 11 min […]
as §5

The test system of test [3] is HaCaT keratinocytes. The test can be described thus: Effect of ectoin on suppression of intracellular carbonylated protein accumulation induced by oleic acid. Conditions: 100 mM ectoin pre-treatment for 24 h, then 200 μM oleic acid for 48 h; FIG. 2. On the procedure:
The effect of ectoin on carbonylated protein accumulation is analysed. In order to induce Hsp70, HaCaT keratinocytes are cultured with 100 mM ectoin (Merck KGaA, Germany) for 24 h. Cells are cultured with oleic acid for further 48 hours, and CP levels are determined. In this examination, 200 μM oleic acid is used to evaluate the effect of ectoin on CP accumulation in the cells. HaCaT keratinocytes are cultured in DMEM containing 5% FBS and 100 mM ectoin for 24 h. Cells are further cultured with DMEM containing 200 μM oleic acid for 48 h. After fixing with cold methanol for 5 min, cells are reacted with 20 μmol/L FTSC in 0.1 mol/L MES-Na buffer (pH 5.5) at room temperature for 1 h. Fluorescence intensities derived from CPs are measured at Ex/Em 492 nm/516 nm with a fluorescence microplate reader, TECAN SPARK 10M (Mannedorf, Switzerland). Numbers of cells are determined by measuring fluorescence intensities of nuclei stained with Hoechst 33342. Intracellular CP levels are calculated as fluorescence intensity of FTSC per fluorescence intensities of nuclei.

The subject of test [4] is HaCaT keratinocytes. The test can be described thus: Intracellular carbonylated protein (CP) levels in HaCaT keratinocytes cultured with oleic acid (FTSC fluorescence). The following applies: HaCaT keratinocytes cultured in DMEM containing oleic acid at several concentrations for 48 h; FIG. 1. The protocol: Protein carbonylation is initiated by reactive aldehyde compounds which are synthesized by lipid peroxidation. Since skin pores are always immersed by sebum, oleic acid which is one of the sebum components, is used as a source of intracellular synthesis of reactive aldehyde compounds to establish cells with accumulated carbonylated proteins.
Cell culture: HaCaT keratinocytes are cultured in Dulbeco's modified Eagle's medium (DMEM) (Nissui, Tokyo, Japan) supplemented with 5% fetal bovine serum (FBS) (Thermofisher, Waltham, Calif., USA) at 37° C. in 5% CO2 and 95% air.
For this example HaCaT keratinocytes are cultured in DMEM containing oleic acid at several concentrations for 48 h. After fixing with cold methanol for 5 min, cells are reacted with 20 μmol/L FTSC (Sigma-Aldrich, St. Louis, Mo., USA in 0.1 mol/L MES-Na buffer (pH 5.5) at room temperature for 1 h. Fluorescence intensities derived from CPs are measured at Ex/Em 492 nm/516 nm with a fluorescence microplate reader, TECAN SPARK 10M (Mannedorf, Switzerland). Numbers of cells are determined by measuring fluorescence intensities of nuclei stained with Hoechst 33342 (Sigma-Aldrich (St. Louis, Mo., USA)). Intracellular CP levels are calculated as fluorescence intensity of FTSC per fluorescence intensities of nuclei.

The structures appear in SMILES notation.

Consider `CC1=N[C@H](C(=O)O)CCN1` [ectoin, (S)-1,4,5,6-tetrahydro-2-methyl-4-pyrimidincarboxylic acid], for which the “protective effect against UVA induced protein carbonylation” value in the test on HaCaT keratinocytes [1] (ectoin 0.3% w/v) was “significant protective effect”; with HaCaT keratinocytes [1] (ectoin 0.5% w/v) it was “No significant comparison”. Besides, the “protective effect against blue light induced protein carbonylation” value in the test on HaCaT keratinocytes [2] (ectoin 0.3% w/v) and in the test on HaCaT keratinocytes [2] (ectoin 0.5% w/v) was “significant protective effect” in each case. For the same molecule, the “CP accumulation through oleic acid” value in the test with HaCaT keratinocytes [3] is “suppression of CP accumulation”.

As for `CCCCCCCC/C=C\CCCCCCCC(=O)O` [oleic acid], the “level of intracellular CPs” value with HaCaT keratinocytes [4] is “higher level of intracellular CPs”.
